Experimental data from article PMC11637875, “Discovery of novel PARP1/NRP1 dual-targeting inhibitors with strong antitumor potency” (Frontiers in Pharmacology, 2024).
pIC50, pKd: −log10 of the molar value.

Legend:
NEK9 = NEK9 (Homo sapiens, UniProt Q8TD19); experiment: Selectivity profile (123 kinase panel); assay type: biochemical
DAPK1 = DAPK1 (Homo sapiens, UniProt P53355); experiment: Selectivity profile (123 kinase panel); assay type: biochemical
DCAMKL2 = DCAMKL2 (Homo sapiens, UniProt Q8N568); experiment: Selectivity profile (123 kinase panel); assay type: biochemical
DYRK1A = DYRK1A (Homo sapiens, UniProt Q13627); experiment: Selectivity profile (123 kinase panel); assay type: biochemical
NuaK2 = NuaK2 (Homo sapiens, UniProt Q9H093); experiment: Selectivity profile (123 kinase panel); assay type: biochemical
CLK1 = CLK1 (Homo sapiens, UniProt P49759); experiment: Selectivity profile (123 kinase panel); assay type: biochemical
CHK2 = CHK2 (Homo sapiens, UniProt O96017); experiment: Selectivity profile (123 kinase panel); assay type: biochemical
MARK2 = MARK2 (Homo sapiens, UniProt Q7KZI7); experiment: Selectivity profile (123 kinase panel); assay type: biochemical
JNK1 = JNK1 (Homo sapiens, UniProt P45983); experiment: Selectivity profile (123 kinase panel); assay type: biochemical
PARP2 = PARP2 (Homo sapiens, UniProt Q9UGN5); experiment: Specificity testing by MST assay; assay type: binding
Description: (§1) All samples were diluted in 1 × PBST. […] Affinity Analysis software.

PARP8 = PARP8 (Homo sapiens, UniProt Q8N3A8); experiment: Specificity testing by MST assay; assay type: binding
Description: as §1

PARP15 = PARP15 (Homo sapiens, UniProt Q460N3); experiment: Specificity testing by MST assay; assay type: binding
Description: as §1

NRP2 = NRP2 (Homo sapiens, UniProt O60462); experiment: Specificity testing by MST assay; assay type: binding
Description: as §1

PARP9 = PARP9 (Homo sapiens, UniProt Q8IXQ6); experiment: Specificity testing by MST assay; assay type: binding
Description: as §1

PARP12 = PARP12 (Homo sapiens, UniProt Q9H0J9); experiment: Specificity testing by MST assay; assay type: binding
Description: as §1

RAD51 = RAD51 (Homo sapiens, UniProt Q06609); experiment: Specificity testing by MST assay; assay type: binding
Description: as §1

PARP13 = PARP13 (Homo sapiens, UniProt Q7Z2W4); experiment: Specificity testing by MST assay; assay type: binding
Description: as §1

ATR = ATR (Homo sapiens, UniProt Q13535); experiment: Specificity testing by MST assay; assay type: binding
Description: as §1

PARP10 = PARP10 (Homo sapiens, UniProt Q53GL7); experiment: Specificity testing by MST assay; assay type: binding
Description: as §1

PARP7 = PARP7 (Homo sapiens, UniProt Q7Z3E1); experiment: Specificity testing by MST assay; assay type: binding
Description: as §1

PARP14 = PARP14 (Homo sapiens, UniProt Q460N5); experiment: Specificity testing by MST assay; assay type: binding
Description: as §1

PARP3 = PARP3 (Homo sapiens, UniProt Q9Y6F1); experiment: Specificity testing by MST assay; assay type: binding
Description: as §1

CHEK2 = CHEK2 (Homo sapiens, UniProt O96017); experiment: Specificity testing by MST assay; assay type: binding
Description: as §1

EPHB2 = EPHB2 (Homo sapiens, UniProt P29323); experiment: Selectivity profile (123 kinase panel); assay type: biochemical
AurB = AurB (Homo sapiens, UniProt Q96GD4); experiment: Selectivity profile (123 kinase panel); assay type: biochemical
[1] = test system: MDA-MB-231 xenograft tumor; experiment: In vivo antitumor assay; design: species or system BALB/c nude mice; conditions: for body weight (g) in mice, mean / tumor volume (mm^3), mean: 5 mg/kg intraperitoneally every 3 days, n = 6
Description: Twenty-four female BALB/c nude mice (body weight 16–20 g) at 4–6 weeks old were purchased from Changzhou Cavens Experimental Animal Limited Company (Changzhou, China). Mice were adaptively housed for 1 week in a specific pathogen-free (SPF) environment with a temperature of 25°C ± 2°C, a 12-hour light/dark cycle, and free access to food and water. MDA-MB-231 breast cancer cells (200 μL, 1×10^7 cells) were suspended in PBS to formulate cell suspension, and 0.1 mL of cells were injected into the axilla of the left forelimb of mice by subcutaneous injection. […] Equal concentrations of drug-free PBS buffer were used for the vehicle group. Each group was administered every 3 days and the body weight and tumor size of the mice were recorded. Mice were executed when the tumor volume approached 2000 mm^3. Tumor volumes of all mice were measured using vernier calipers. The mice were placed belly up and the longest diameter of the tumor was measured with the inner bayonet of a vernier caliper, and the shortest transverse diameter perpendicular to the diameter was measured with the inner bayonet of a vernier caliper and recorded. Tumor volume was estimated according to the following formula: (c × c × d)/2 (c, the smallest diameter; d, the largest diameter). All animal experiments were performed and approved by the Ethics Committee of China Pharmaceutical University.

ITK = ITK (Homo sapiens, UniProt Q08881); experiment: Selectivity profile (123 kinase panel); assay type: biochemical
Chain of ITK (Q08881 whole entry): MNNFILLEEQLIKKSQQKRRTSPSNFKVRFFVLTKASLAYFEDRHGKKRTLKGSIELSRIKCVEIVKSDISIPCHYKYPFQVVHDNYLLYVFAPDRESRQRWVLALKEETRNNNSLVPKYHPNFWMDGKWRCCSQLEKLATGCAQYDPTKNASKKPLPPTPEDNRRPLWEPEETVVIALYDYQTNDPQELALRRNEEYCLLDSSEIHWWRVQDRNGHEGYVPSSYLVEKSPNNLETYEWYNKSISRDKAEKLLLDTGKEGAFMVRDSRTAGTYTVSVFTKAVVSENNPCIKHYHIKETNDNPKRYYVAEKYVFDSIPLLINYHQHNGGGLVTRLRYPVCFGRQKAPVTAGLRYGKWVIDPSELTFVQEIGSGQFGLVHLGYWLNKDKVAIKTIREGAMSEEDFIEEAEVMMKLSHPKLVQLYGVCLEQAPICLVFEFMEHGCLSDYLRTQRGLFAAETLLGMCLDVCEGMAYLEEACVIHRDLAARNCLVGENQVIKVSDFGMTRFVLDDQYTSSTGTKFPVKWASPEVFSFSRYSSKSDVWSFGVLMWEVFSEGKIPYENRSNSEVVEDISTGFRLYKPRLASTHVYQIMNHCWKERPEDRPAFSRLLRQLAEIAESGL

Chain of DAPK1 (P53355 whole entry): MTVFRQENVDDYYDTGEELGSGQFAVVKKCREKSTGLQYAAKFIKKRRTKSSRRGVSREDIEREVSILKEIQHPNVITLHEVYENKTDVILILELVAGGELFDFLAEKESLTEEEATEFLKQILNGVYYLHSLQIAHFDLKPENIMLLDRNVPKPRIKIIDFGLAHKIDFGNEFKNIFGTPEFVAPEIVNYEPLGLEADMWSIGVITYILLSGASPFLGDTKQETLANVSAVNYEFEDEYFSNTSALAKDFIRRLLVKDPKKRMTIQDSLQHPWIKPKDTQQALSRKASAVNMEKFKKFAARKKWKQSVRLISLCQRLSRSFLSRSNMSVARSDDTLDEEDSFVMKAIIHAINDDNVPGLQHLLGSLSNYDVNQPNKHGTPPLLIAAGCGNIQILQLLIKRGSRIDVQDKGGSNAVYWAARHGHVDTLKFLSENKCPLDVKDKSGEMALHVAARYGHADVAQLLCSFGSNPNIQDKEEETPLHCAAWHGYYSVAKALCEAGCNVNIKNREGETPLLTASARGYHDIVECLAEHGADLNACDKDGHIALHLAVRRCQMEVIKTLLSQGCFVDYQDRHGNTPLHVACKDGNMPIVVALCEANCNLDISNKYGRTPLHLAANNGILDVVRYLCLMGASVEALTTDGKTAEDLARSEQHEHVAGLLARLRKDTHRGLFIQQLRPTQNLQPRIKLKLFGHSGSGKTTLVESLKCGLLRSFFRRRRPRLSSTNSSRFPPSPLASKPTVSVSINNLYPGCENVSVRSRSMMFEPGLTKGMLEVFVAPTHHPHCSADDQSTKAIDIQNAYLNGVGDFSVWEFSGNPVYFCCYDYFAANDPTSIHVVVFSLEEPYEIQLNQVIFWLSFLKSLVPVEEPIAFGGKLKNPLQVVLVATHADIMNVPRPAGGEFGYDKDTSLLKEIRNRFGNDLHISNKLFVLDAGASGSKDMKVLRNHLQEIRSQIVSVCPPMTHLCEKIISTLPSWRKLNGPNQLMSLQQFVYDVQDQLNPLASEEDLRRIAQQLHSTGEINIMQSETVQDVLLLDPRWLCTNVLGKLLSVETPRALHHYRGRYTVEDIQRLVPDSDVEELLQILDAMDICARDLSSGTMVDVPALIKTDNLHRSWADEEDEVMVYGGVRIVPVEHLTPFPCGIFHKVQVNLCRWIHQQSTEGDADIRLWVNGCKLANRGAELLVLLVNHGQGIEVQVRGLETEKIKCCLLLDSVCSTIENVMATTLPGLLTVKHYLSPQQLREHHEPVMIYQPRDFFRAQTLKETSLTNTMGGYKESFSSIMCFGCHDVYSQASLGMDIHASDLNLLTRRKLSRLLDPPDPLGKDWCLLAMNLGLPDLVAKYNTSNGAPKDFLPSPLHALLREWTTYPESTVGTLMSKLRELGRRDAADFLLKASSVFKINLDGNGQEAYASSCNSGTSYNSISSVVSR
Chain of DCAMKL2 (Q8N568 whole entry): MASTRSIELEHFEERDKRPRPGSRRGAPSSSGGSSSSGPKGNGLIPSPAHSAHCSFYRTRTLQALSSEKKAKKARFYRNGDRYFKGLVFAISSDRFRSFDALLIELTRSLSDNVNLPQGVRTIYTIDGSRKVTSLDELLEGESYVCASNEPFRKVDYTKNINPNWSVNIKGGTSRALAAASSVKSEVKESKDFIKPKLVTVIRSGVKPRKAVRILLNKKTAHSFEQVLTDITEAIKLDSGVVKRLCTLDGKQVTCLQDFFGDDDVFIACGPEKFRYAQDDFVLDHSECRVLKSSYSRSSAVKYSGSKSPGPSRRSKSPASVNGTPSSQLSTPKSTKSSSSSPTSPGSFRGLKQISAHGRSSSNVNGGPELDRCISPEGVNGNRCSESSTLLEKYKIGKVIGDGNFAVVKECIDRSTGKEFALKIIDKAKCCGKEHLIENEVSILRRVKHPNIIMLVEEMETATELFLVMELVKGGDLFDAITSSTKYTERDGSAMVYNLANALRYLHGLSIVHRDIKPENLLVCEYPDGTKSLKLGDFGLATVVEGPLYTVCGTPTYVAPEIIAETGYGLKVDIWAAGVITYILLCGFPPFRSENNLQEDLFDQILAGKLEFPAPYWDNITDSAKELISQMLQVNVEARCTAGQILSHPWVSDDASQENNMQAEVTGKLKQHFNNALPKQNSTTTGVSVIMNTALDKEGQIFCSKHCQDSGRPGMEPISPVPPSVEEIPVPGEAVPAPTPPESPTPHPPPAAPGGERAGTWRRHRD
Chain of PARP7 (Q7Z3E1 whole entry): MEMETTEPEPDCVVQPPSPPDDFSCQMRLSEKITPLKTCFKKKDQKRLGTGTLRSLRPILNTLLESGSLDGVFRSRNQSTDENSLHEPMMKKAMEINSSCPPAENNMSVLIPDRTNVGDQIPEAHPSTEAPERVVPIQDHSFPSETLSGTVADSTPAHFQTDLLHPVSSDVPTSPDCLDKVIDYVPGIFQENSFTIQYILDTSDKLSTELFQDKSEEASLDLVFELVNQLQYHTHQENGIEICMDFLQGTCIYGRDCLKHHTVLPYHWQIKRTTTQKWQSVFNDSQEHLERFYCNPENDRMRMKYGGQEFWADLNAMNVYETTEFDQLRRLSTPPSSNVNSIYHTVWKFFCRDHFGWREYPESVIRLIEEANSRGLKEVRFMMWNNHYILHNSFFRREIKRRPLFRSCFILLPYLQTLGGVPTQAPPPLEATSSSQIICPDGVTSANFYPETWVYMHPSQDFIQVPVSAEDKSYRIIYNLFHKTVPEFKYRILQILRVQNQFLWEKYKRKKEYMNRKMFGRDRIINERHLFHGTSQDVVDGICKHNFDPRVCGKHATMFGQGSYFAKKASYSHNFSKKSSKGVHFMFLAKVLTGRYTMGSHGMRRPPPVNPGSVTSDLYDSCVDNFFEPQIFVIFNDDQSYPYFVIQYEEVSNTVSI
Chain of AurB (Q96GD4 whole entry): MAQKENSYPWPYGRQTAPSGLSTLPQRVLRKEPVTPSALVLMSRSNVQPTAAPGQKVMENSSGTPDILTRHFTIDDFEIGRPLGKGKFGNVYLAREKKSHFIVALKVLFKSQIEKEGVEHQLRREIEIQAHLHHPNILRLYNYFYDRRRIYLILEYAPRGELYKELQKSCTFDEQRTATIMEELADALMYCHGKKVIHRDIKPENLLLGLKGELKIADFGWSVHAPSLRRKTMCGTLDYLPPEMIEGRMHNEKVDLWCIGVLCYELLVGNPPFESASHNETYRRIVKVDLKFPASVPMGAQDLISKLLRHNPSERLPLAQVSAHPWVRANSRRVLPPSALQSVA
Chain of PARP12 (Q9H0J9 whole entry): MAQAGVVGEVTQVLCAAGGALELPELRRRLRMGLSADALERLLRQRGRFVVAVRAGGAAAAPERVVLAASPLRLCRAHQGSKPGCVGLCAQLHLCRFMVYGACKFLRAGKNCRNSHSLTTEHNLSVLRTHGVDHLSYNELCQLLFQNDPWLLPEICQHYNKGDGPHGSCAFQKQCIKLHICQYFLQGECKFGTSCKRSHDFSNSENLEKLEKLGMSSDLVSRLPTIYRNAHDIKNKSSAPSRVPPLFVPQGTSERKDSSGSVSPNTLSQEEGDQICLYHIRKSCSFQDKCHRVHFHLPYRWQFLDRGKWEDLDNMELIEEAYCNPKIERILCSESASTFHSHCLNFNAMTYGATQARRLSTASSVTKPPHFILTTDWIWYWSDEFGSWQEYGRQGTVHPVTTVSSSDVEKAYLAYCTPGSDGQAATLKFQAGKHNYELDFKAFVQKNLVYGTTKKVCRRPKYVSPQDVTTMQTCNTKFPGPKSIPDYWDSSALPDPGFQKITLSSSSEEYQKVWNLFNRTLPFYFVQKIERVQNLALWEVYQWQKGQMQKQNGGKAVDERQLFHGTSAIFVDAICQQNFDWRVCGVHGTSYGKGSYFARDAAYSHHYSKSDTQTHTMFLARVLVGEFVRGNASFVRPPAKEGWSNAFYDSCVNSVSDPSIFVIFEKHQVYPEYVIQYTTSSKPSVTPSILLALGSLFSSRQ
Chain of CHEK2 (O96017 whole entry): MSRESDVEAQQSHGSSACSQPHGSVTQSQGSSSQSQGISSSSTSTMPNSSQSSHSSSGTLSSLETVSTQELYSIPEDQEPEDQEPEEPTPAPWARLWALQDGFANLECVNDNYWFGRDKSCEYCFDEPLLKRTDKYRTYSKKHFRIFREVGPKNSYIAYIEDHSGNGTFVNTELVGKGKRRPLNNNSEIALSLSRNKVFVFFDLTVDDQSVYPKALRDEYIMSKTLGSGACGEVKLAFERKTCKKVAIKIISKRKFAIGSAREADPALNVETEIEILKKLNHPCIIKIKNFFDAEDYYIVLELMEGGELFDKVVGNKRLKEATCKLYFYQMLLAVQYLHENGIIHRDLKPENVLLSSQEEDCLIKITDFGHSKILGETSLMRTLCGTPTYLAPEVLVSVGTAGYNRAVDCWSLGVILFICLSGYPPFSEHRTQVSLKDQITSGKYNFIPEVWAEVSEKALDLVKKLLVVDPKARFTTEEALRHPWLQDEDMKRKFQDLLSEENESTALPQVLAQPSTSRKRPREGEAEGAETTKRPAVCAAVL

Compound: NC(N)=NCCC[C@H](NCN1CCN(C(=O)c2cc(Cc3n[nH]c(=O)c4ccccc34)ccc2F)CC1)C(=O)O [PPNR-4]
- pIC50 (NEK9): < 5.00
- pIC50 (DAPK1): < 5.00
- pIC50 (DCAMKL2): < 5.00
- pIC50 (DYRK1A): < 5.00
- pIC50 (NuaK2): < 5.00
- pIC50 (CLK1): < 5.00
- pIC50 (CHK2): < 5.00
- pIC50 (MARK2): < 5.00
- pIC50 (JNK1): < 5.00
- pKd (PARP2): < 5.00
- pKd (PARP8): < 5.00
- pKd (PARP15): < 5.00
- pKd (NRP2): < 5.00
- pKd (PARP9): < 5.00
- pKd (PARP12): < 5.00
- pKd (RAD51): < 5.00
- pKd (PARP13): < 5.00
- pKd (ATR): < 5.00
- pKd (PARP10): < 5.00
- pKd (PARP7): < 5.00
- pKd (PARP14): < 5.00
- pKd (PARP3): < 5.00
- pKd (CHEK2): < 5.00
- pIC50 (EPHB2): < 5.00
- pIC50 (AurB): < 5.00
- inhibitory effect on tumor volume growth ([1]; 5 mg/kg, in comparison to the olaparib or EG00229-treated groups): more remarkable inhibitory effect on tumor volume growth
- body weight (g) in mice, mean ([1]; day 0): 18.41 g
- tumor volume (mm^3), mean ([1]; day 0): 99 mm^3
- body weight (g) in mice, mean ([1]; day 3): 18.62 g
- tumor volume (mm^3), mean ([1]; day 3): 155 mm^3
- body weight (g) in mice, mean ([1]; day 6): 18.85 g
- tumor volume (mm^3), mean ([1]; day 6): 196 mm^3
- body weight (g) in mice, mean ([1]; day 9): 19.07 g
- tumor volume (mm^3), mean ([1]; day 9): 253 mm^3
- body weight (g) in mice, mean ([1]; day 12): 19.33 g
- tumor volume (mm^3), mean ([1]; day 12): 226 mm^3
- pIC50 (ITK): < 5.00
